{"source": "ChEMBL document CHEMBL1126983", "about": "“Catalytic functionalization of polymers: a novel approach to site specific delivery of misoprostol to the stomach” (1993)", "key": {"Rattus norvegicus [1]": {"species": "Rattus norvegicus", "experiment": "Compound was tested for mucosal protective activity in rats using 4 hr EtOH model", "type": "functional"}, "Rattus norvegicus [2]": {"tested_on": "Rattus norvegicus", "experiment": "Compound was tested for diarrheagenic activity in rats after intrajejuna administration (I.J)", "type": "functional"}, "Rattus norvegicus [3]": {"tested_on": "Rattus norvegicus", "experiment": "Compound was tested for diarrheagenic activity in rats after intracolonic administration (I.C)", "type": "functional"}, "Rattus norvegicus [4]": {"tested_on": "Rattus norvegicus", "experiment": "Compound was tested for diarrheagenic activity in rats after intragastric administration (I.G)", "type": "functional"}, "Rattus norvegicus [5]": {"species": "Rattus norvegicus", "experiment": "Compound was tested for mucosal protective activity against indomethacin-induced intestinal damage in rats", "type": "functional"}, "Rattus norvegicus [6]": {"species": "Rattus norvegicus", "experiment": "Compound was tested for mucosal protective activity against indomethacin-induced gastric damage in rats", "type": "functional, Stomach"}}, "data": [{"smiles": "CCCCC(C)(O)C/C=C/[C@H]1[C@H](O)CC(=O)[C@@H]1CCCCCCC(=O)OC", "note": "(stereo partly specified) [MISOPROSTOL]", "values": [{"measurement": "ED50", "setting": "Rattus norvegicus [1]", "value": "525 (ug of misoprostol) kg-1"}, {"measurement": "ED50", "setting": "Rattus norvegicus [2]", "value": "534 (ug of misoprostol) kg-1"}, {"measurement": "ED50", "setting": "Rattus norvegicus [3]", "value": "97 (ug of misoprostol) kg-1"}, {"measurement": "ED50", "setting": "Rattus norvegicus [4]", "value": "265 (ug of misoprostol) kg-1"}, {"measurement": "ED50", "setting": "Rattus norvegicus [5]", "value": "294 (ug of misoprostol) kg-1"}, {"measurement": "ED50", "setting": "Rattus norvegicus [6]", "value": "14 (ug of misoprostol) kg-1"}]}]}
